From patent US10457655B2, “Compounds and compositions for inhibition of FASN” (FORMA Therapeutics, Inc., priority 2013, dated 2019) come the findings set out here.

The first assay deals with FASN enzyme (Homo sapiens, UniProt P49327). As to the kind of experiment: Enzymatic Assay for FASN Inhibitors. It is filed as biochemical.
Chain of FASN enzyme (P49327 whole entry): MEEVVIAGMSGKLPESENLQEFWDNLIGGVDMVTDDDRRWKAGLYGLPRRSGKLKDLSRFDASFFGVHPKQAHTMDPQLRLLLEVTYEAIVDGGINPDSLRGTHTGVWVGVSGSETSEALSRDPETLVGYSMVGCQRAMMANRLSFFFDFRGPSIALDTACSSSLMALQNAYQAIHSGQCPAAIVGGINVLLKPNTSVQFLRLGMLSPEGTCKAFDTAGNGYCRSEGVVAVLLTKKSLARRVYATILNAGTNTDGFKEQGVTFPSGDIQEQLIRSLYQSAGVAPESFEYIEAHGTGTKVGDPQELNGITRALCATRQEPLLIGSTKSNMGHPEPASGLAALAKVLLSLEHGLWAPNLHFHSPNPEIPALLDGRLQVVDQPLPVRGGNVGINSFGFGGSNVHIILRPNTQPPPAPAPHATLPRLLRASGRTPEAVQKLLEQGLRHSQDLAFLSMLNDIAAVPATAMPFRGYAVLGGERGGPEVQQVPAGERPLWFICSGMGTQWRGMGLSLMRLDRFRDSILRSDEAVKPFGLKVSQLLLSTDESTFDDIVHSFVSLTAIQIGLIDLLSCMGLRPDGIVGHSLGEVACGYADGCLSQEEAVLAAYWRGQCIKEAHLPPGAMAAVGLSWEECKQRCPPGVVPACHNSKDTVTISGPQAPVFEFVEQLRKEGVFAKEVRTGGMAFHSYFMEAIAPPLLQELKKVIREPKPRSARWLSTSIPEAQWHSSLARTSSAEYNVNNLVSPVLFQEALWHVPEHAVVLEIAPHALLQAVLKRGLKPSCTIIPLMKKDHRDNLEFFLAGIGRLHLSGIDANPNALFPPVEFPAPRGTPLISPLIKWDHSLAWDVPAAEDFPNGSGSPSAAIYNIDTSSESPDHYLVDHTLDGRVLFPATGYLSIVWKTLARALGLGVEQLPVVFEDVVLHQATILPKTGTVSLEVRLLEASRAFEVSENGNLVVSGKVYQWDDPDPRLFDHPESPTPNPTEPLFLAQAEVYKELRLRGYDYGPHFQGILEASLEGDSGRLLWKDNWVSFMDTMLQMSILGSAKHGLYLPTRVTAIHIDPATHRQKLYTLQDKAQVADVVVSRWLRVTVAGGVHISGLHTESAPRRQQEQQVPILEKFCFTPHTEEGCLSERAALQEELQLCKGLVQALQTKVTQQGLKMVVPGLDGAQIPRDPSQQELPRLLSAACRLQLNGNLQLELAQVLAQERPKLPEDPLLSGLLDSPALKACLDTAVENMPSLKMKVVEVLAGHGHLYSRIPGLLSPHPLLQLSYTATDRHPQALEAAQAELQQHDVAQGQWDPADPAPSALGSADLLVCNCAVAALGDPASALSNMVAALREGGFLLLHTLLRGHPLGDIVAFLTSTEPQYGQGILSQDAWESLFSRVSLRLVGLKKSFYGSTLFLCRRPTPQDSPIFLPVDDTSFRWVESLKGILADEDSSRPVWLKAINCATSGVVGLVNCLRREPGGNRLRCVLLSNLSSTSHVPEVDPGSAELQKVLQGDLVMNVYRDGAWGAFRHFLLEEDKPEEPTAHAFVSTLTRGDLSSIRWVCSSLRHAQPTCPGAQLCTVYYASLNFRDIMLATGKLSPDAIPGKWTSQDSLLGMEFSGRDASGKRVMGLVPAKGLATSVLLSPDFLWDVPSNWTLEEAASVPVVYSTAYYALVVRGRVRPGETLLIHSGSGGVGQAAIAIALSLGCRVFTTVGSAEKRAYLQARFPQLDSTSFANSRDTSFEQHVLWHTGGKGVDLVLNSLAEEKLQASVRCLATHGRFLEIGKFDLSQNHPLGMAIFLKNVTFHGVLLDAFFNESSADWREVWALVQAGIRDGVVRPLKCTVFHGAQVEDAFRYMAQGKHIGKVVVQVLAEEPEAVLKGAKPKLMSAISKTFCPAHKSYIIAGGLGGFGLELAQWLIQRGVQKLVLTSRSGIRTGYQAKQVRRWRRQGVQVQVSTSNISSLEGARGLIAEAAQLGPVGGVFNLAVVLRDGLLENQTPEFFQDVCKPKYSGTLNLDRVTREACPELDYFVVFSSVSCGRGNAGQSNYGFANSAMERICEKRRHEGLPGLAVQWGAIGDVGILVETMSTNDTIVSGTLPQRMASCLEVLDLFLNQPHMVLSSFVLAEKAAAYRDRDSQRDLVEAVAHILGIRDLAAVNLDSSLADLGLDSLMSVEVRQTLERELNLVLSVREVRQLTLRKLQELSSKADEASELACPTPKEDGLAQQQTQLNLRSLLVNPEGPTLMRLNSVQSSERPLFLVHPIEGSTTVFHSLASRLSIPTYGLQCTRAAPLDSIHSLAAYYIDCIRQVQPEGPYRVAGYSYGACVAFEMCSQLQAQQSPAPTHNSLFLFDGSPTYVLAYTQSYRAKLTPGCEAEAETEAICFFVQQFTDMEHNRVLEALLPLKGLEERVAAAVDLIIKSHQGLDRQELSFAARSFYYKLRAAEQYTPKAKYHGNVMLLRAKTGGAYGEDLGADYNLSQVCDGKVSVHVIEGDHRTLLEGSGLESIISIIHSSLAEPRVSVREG
Details: not given
As for the experimental part: Assays were performed in a 384-well black plate to measure the inhibition of FASN activities by individual compounds herein disclosed. An aliquot of 250 nL of compound was incubated with 10 μL of 40 nM FASN enzyme in assay buffer (50 mM HEPES pH=7.3, 0.5 mM EDTA, 1 mM Ascorbate, 100 mM NaCl and 0.04% TritonX-100) in each well at 25° C. for 60 minutes. After the plate was centrifuged briefly, 10 μL of substrate mix (20 μM Acetyl-CoA, 60 μM Malonyl-CoA, and 100 μM NADPH in assay buffer) was added to each well. The reaction was maintained at 25° C. for 90 minutes. The reaction was then quenched by adding 10 μL of 90 μM 7-Diethylamino-3-(4′-Maleimidylpheynyl)-4-Methylcoumarin in 50/50 Ethanol/H2O solution. The assay plate was incubated at 25° C. for 15 minutes, and read on a plate reader with excitation and emission wavelength at 360 nm and 530 nm, respectively. The IC50 of a given compound was calculated by fitting the dose response curve with a four parameter logistic equation.
Usually IC50 stands for the midpoint of a concentration-inhibition curve. Lower therefore signals greater potency. In turn, `N#CC1(c2cccc(-c3ccc(C(=O)N4CCN(C(=O)C5(O)CC5)CC4)cc3)c2)CC1` came in with an IC50 of less than 500 nM.

For `Cn1cnc2cc(-c3ccc(C(=O)N4CCN(C(=O)C5(O)CC5)CC4(C)C)cc3)ccc21`, the IC50 was less than 500 nM.

In the case of `Cn1cc2ccc(-c3ccc(C(=O)N4CCN(C(=O)C5(O)CC5)CC4)c(F)c3)cc2n1`, the IC50 is less than 500 nM.

The molecule `Cc1nn(-c2ccc(C(=O)N3CCN(C(=O)C4(O)CC4)CC3)c(F)c2)c2ccccc12` had an IC50 of less than 500 nM.

The molecule `Cc1n[nH]c2cc(-c3ccc(C(=O)N4CCN(C(=O)C5(O)CC5)CC4)c(F)c3)ccc12` came in with a concentration for half-maximal inhibition (IC50) of less than 500 nM.

For `NC1(C(=O)N2CCN(C(=O)c3ccc(-c4n[nH]c5c(F)cccc45)cc3F)CC2)CC1`, the IC50 is less than 500 nM.

In turn, `O=C(c1ccc(-c2cccc(S(=O)(=O)C3CC3)c2)c(Cl)c1)N1CCN(C(=O)C2(O)CC2)CC1` showed an IC50 of less than 500 nM.

As to `Cn1cnc2cc(-c3ccc(C(=O)N4CCN(C(=O)C5(N)CCC5)CC4)cc3)ccc21`, the IC50 is less than 500 nM.

For the molecule `Cn1ncc2ccc(-c3ccc(C(=O)N4CCN(C(=O)C5(N)CC5)CC4)cc3)cc21`, the IC50 is less than 500 nM.

The molecule `O=C(c1ccc(N2CCCc3ccccc32)cc1)N1CCN(C(=O)C2(O)CC2)CC1` gave an IC50 of less than 500 nM.

`Cn1nc2ccc(-c3ccc(C(=O)N4CCN(C(=O)C5(O)CC5)CC4)cc3)cc2n1` showed an IC50 of less than 500 nM.

With `Cc1n[nH]c2c(-c3ccc(C(=O)N4CCN(C(=O)C5(N)CC5)CC4)cc3)cccc12`, the IC50 is less than 500 nM.

Turning to `O=C(c1ccc(-c2ccc(-c3cn[nH]c3)cc2)cc1)N1CCN(C(=O)C2(O)CC2)CC1`, the IC50 is less than 500 nM.

On to `Cc1nc2cc(Cl)cc(-c3ccc(C(=O)N4CCN(C(=O)C5(O)CC5)CC4)cc3)c2[nH]1`, for which the IC50 was less than 500 nM.

Consider `O=C(c1ccc(-c2cc3[nH]nnc3cc2F)cc1)N1CCN(C(=O)C2(O)CC2)CC1`, for which the IC50 is less than 500 nM.

`CC1(C)CN(C(=O)C2(O)CC2)CCN1C(=O)c1ccc(-c2nc3ccc(F)cc3o2)cc1` registered an IC50 of less than 500 nM.

On to `O=C(c1ccc(N2CCc3ccc(F)cc3C2)cc1)N1CCN(C(=O)C2(O)CC2)CC1`, for which the IC50 is less than 500 nM.

On to `O=C(c1ccc(-c2ccc(Cl)cc2)cc1)N1CCN(C(=O)C2(O)CC2)CC1`, for which the IC50 is less than 500 nM.

Molecule `C[C@H]1CN(C(=O)c2ccc(-c3ccc(Cl)cc3F)cc2)CCN1C(=O)C1(O)CC1` registered an IC50 of less than 500 nM.

Molecule `C[C@H]1CN(C(=O)c2ccc(-c3nc4ccc(F)cc4o3)cc2)CCN1C(=O)C1(O)CC1` displayed an IC50 of less than 500 nM.

Take `C[C@@H]1CN(C(=O)c2ccc(-c3nc4ccc(F)cc4o3)cc2)C[C@H](C)N1C(=O)C1(O)CC1`: the IC50 is less than 500 nM.

The molecule `C[C@@H]1CN(C(=O)C2(O)CC2)CCN1C(=O)c1ccc(-c2ccc(Cl)cc2F)cc1` returned an IC50 of less than 500 nM.

Molecule `C[C@@H]1CN(C(=O)C2(O)CC2)C[C@H](C)N1C(=O)c1ccc(-c2ccc3c(c2)ncn3C)cc1` showed an IC50 of less than 500 nM.

The molecule `C[C@H]1CN(C(=O)C2(O)CC2)CCN1C(=O)c1ccc(-c2ccc3c(c2)ncn3C)cc1` gave an IC50 of less than 500 nM.

Take `COc1ccc(OC(F)(F)F)cc1-c1ccc(C(=O)N2CCN(C(=O)C3(O)CC3)CC2)cc1`: the IC50 is less than 500 nM.

`O=C(c1ccc(-c2cccc3nsnc23)cc1)N1CCN(C(=O)C2(O)CC2)CC1` returned an IC50 of less than 500 nM.

In turn, `O=C(c1ccc(-c2cccc(OCC3CC3)c2)cc1)N1CCN(C(=O)C2(O)CC2)CC1` came in with an IC50 of less than 500 nM.

On to `O=C(c1ccc(-c2nc3ccccn3c2Cl)cc1)N1CCN(C(=O)C2(O)CC2)CC1`, for which the IC50 is less than 500 nM.

Regarding `O=C(c1ccc(-c2cccc(OC3CC3)c2)cc1)N1CCN(C(=O)C2(O)CC2)CC1`, the 50% inhibitory concentration (IC50) is less than 500 nM.

Molecule `O=C(c1ccc(-c2cc(F)c3[nH]ccc3c2)cc1)N1CCN(C(=O)C2(O)CC2)CC1` displayed an IC50 of less than 500 nM.

As for `Cn1ccc2cc(-c3ccc(C(=O)N4CCN(C(=O)C5(O)CC5)CC4)cn3)ccc21`, the IC50 was less than 500 nM.

`Cc1nn(C)c2ccc(-c3ccc(C(=O)N4CCN(C(=O)C5CCO5)CC4)cc3)cc12` (centres unmarked) displayed an IC50 of less than 500 nM.

`CC1(c2cccc(-c3ccc(C(=O)N4CCN(C(=O)C5(O)CC5)CC4)cc3)c2)NC(=O)NC1=O` (centres unmarked) registered an IC50 of less than 500 nM.

Turning to `O=C(c1ccc(-c2ccc3[nH]c(=O)ccc3c2)cc1)N1CCN(C(=O)C2(O)CC2)CC1`, the IC50 is less than 500 nM.

As to `O=C(c1ccc(-c2cccc(NS(=O)(=O)C3CCCC3)c2)cc1)N1CCN(C(=O)C2(O)CC2)CC1`, the IC50 is less than 500 nM.

`O=C(Nc1cccc(-c2ccc(C(=O)N3CCN(C(=O)C4(O)CC4)CC3)cc2)c1)C1CC1` displayed an IC50 of less than 500 nM.

As for `N#CC1(c2cccc(-c3ccc(C(=O)N4CCN(C(=O)C5(O)CC5)CC4)c(F)c3)c2)CC1` [1-(3-{3-fluoro-4-[4-(1-hydroxycyclopropanecarbonyl)piperazine-1-carbonyl]phenyl}phenyl)cyclopropane-1-carbonitrile], the IC50 was less than 500 nM.

In the case of `N#CC1(c2cccc(-c3ccc(C(=O)N4CCN(C(=O)C5(N)CC5)CC4)cc3)c2)CC1` [1-(3-{4-[4-(1-aminocyclopropanecarbonyl)piperazine-1-carbonyl]phenyl}phenyl)cyclopropane-1-carbonitrile], the IC50 is less than 500 nM.

Take `N#CC1(c2cccc(-c3ccc(C(=O)N4CCN(C(=O)C5(O)CC5)CC4)cc3)c2)CCC1` [1-(3-{4-[4-(1-hydroxycyclopropanecarbonyl)piperazine-1-carbonyl]phenyl}phenyl)cyclobutane-1-carbonitrile]: the IC50 is less than 500 nM.

The molecule `O=C(c1ccc(-c2cccc(N3CCNC3=O)c2)cc1)N1CCN(C(=O)C2(O)CC2)CC1` [1-(3-{4-[4-(1-hydroxycyclopropanecarbonyl)piperazine-1-carbonyl]phenyl}phenyl)imidazolidin-2-one] showed an IC50 of less than 500 nM.

`O=C(c1ccc(-c2cccc(N3CCCC3=O)c2)cc1)N1CCN(C(=O)C2(O)CC2)CC1` [1-(3-{4-[4-(1-hydroxycyclopropanecarbonyl)piperazine-1-carbonyl]phenyl}phenyl)pyrrolidin-2-one] yielded an IC50 of less than 500 nM.

In turn, `O=C(c1ccc(-c2ccc3c(c2)ncn3CCO)cc1)N1CCN(C(=O)C2(O)CC2)CC1` [1-(4-{4-[1-(2-hydroxyethyl)-1H-1,3-benzodiazol-5-yl]benzoyl}piperazine-1-carbonyl)cyclopropan-1-ol] registered an IC50 of less than 500 nM.

`O=C(c1ccc(-c2ccc3ncn(CCO)c3c2)cc1)N1CCN(C(=O)C2(O)CC2)CC1` [1-(4-{4-[1-(2-hydroxyethyl)-1H-1,3-benzodiazol-6-yl]benzoyl}piperazine-1-carbonyl)cyclopropan-1-ol] registered an IC50 of less than 500 nM.

For `O=C(c1ccc(-c2ccc3[nH]c(CO)nc3c2)cc1)N1CCN(C(=O)C2(O)CC2)CC1` [1-(4-{4-[2-(hydroxymethyl)-1H-1,3-benzodiazol-5-yl]benzoyl}piperazine-1-carbonyl)cyclopropan-1-ol], the IC50 is less than 500 nM.

Still in this assay, the particulars now being: FASN enzymatic assay; Table 2-2.
Molecule `O=C(c1ccc(-c2ccc3nncn3n2)cc1)N1CCN(C(=O)C2(O)CC2)CC1` registered an IC50 of 500 to 5000 nM.

The same assay, now with this note: FASN enzymatic assay; Table 2-3.
Turning to `O=C(c1ccc(-c2ccc(Cl)cc2F)cc1)N1CCN(C(=O)C2(O)CC2)[C@H](CO)C1`, the IC50 is no less than 5000 nM.

`C[C@@H]1CN(C(=O)C2(O)CC2)[C@@H](C)CN1C(=O)c1ccc(-c2ccc3cnccc3c2)cc1` came in with an IC50 of no less than 5000 nM.
